Experiments:
human recombinant PDE V = molecular target: T1, human recombinant PDE V (Homo sapiens, UniProt O76074); assay: Inhibitory effect on cGMP-PDE (one-step assay adapted from Wells et al.); type: biochemical; conditions: 0.15 μM 8-[H3]-cGMP, 30 minutes incubation, 2% DMSO
T1 construct: purchased ICOS, Seattle USA
Method: The enzyme used was a human recombinant PDE V (ICOS, Seattle USA).
Compounds of the invention were dissolved in DMSO finally present at 2% in the assay.

[1] = test system: Rat aortic smooth muscle cells (RSMC); assay: cGMP level measurements in ANF-stimulated cells; type: cell-based; conditions: 30 minutes at 37° C. with compound, then ANF (100 nM) for 10 minutes, c-GMP by scintillation proximity immunoassay
Method: Rat aortic smooth muscle cells (RSMC) prepared according to Chamley et al. in Cell Tissue Res. 177 503-522 (1977) were used between the 10th and 25th passage at confluence in 24-well culture dishes. Culture media was aspirated and replaced with PBS (0.5 ml) containing the compound tested at the appropriate concentration. After 30 minutes at 37° C., particulates guanylate cyclase was stimulated by addition of ANF (100 nM) for 10 minutes. At the end of incubation, the medium was withdrawn and two extractions were performed by addition of 65% ethanol (0.25 ml). The two ethanolic extracts were pooled and evaporated until dryness, using a Speed-vac system. c-GMP was measured after acetylation by scintillation proximity immunoassay ([…]).

[2] = test system: conscious spontaneously hypertensive rats (SHR); assay: Antihypertensive activity in rats; type: in vivo, rat; conditions: orally 5 mg/kg in 5% DMF and 95% olive oil, carotid artery catheter, recorded for 5 hours
Method: The hypotensive effects of compounds according to the invention as identified in table 2 were studied in conscious spontaneously hypertensive rats (SHR). The compounds were administered orally at a dose of 5 mg/kg in a mixture of 5% DMF and 95% olive oil. Blood pressure was measured from a catheter inserted in the carotid artery and recorded for 5 hours after administration. The results are expressed as Area Under the Curve (AUC from 0 to 5 hours, mmHg.hour) of the fall blood pressure over time.

| IC50 (human recombinant PDE V) [nM] | EC50 [1] [nM] | melting point [°C] | Compound | AUC PO (fall in blood pressure over time, AUC from 0 to 5 hours) [2] [mmHg.h] |
| --- | --- | --- | --- | --- |
| 10 | 150 | 273 to 274 | O=C1[C@H]2Cc3c([nH]c4ccccc34)[C@H](c3ccc4c(c3)OCO4)N2C(=O)CN1Cc1ccncc1 (relative stereo) [Example 12, Cis-2,3,6,7,12,12a-Hexahydro-2-(4-pyridylmethyl)-6-(3,4-methylenedioxyphenyl)-pyrazino[2′,1′:6,1]pyrido[3,4-b]indole-1,4-dione] | – |
| < 10 | 500 | 292 to 294 | CN1CC(=O)N2[C@@H](c3ccc4c(c3)CCO4)c3[nH]c4ccccc4c3C[C@@H]2C1=O (relative stereo) [Example 36, Cis-2,3,6,7,12,12a-Hexahydro-6-(2,3-dihydrobenzo[b]furan-5-yl)-2-methyl-pyrazino[2′,1′:6,1]pyrido[3,4-b]indole-1,4-dione] | 99 |
| 20 | 800 | 258 | CN1CC(=O)N2C(Cc3c([nH]c4ccccc34)C2c2ccc(Br)s2)C1=O (stereo not drawn) [Example 52, Cis-2,3,6,7,12,12a-Hexahydro-65-bromo-2-thienyl)-2-methyl-pyrazino[2′,1′:6,1]pyrido[3,4-b]indole-1,4-dione] | – |
| 30 | 350 | 194 | CCCCN1CC(=O)N2C(Cc3c([nH]c4ccccc34)C2c2ccc(C)cc2)C1=O (stereo not drawn) [Example 63, Cis-2 3,6,7,12,12a-Hexahydro-2-butyl-6-(4-methylphenyl)-pyrazino[2′,1′:6,1]pyrido[3,4-b]indole-1,4-dione] | 95 |
| < 10 | 150 | 290 to 293 | CC(C)N1CC(=O)N2[C@H](c3ccc4c(c3)OCO4)c3[nH]c4ccccc4c3C[C@@H]2C1=O [Example 79, (6R,12aR)-2,3,6,7,12,12a-Hexahydro-2-isopropyl-6-(3,4-methylenedioxyphenyl)-pyrazino[2′,1′:6,1]pyrido[3,4-b]indole-1,4-dione] | 171 |
| – | – | 209 to 210 | CCCCN1CC(=O)N2[C@H](c3ccc4c(c3)OCO4)c3[nH]c4ccccc4c3C[C@@H]2C1=O [Example 80, (6R,12aR)-2,3,6,7,12,12a-Hexahydro-2-butyl-6(3,4-methylenedioxyphenyl)-pyrazino[2′,1′:6,1]pyrido[3,4-b]indole-1,4-dione] | – |
| – | – | 227 to 228 | CC(C)CN1CC(=O)N2[C@H](c3ccc4c(c3)OCO4)c3[nH]c4ccccc4c3C[C@@H]2C1=O [Example 81, (6R,12aR)-2,3,6,7,12,12a-Hexahydro-2-isobutyl-6-(3,4-methylenedioxyphenyl)-pyrazino[2′,1′:6,1]pyrido[3,4-b]indole-1,4-dione] | – |
| 20 | 500 | 237 to 239 | O=C1[C@H]2Cc3c([nH]c4ccccc34)[C@@H](c3ccc4c(c3)OCO4)N2C(=O)CN1C1CCCC1 [Example 82, (6R,12aR)-2,3,6,7,12,12a-Hexahydro-2-cyclopentyl-6-(3,4-methylenedioxyphenyl)-pyrazino[2′,1′:6,1pyrido3,4-b]indole-1,4-dione] | 111 |
| – | – | 209 | O=C1[C@H]2Cc3c([nH]c4ccccc34)[C@@H](c3ccc4c(c3)OCO4)N2C(=O)CN1CC1CCCCC1 [Example 83, (6R,12aR)-2,3,6,7,12,12a-Hexahydro-6-(3,4-methylenedioxyphenyl)-2-cyclohexylmethyl-pyrazino[2′,1′:6,1]pyrido[3,4-b]indole-1,4-dione] | – |
| 10 | 400 | 204 to 205 | COc1ccc([C@@H]2c3[nH]c4ccccc4c3C[C@@H]3C(=O)N(CC4CC4)CC(=O)N23)cc1 [Example 84, (6R,12aR)-2,3,6,7,12,12a-Hexahydro-2-cyclopropylmethyl-6-(4-methoxyphenyl)-pyrazino[2′,1′:6.1]pyrido[3,4-b]indole-1,4-dione] | 77 |
| – | – | 218 to 219 | COc1ccc([C@@H]2c3[nH]c4ccccc4c3C[C@@H]3C(=O)N(CC4CC4)CC(=O)N23)cc1Cl [Example 87, (6R,12aR)-2,3,6,7,12,12a-Hexahydro-6-(3-chloro-4-methoxyphenyl)-2-cyclopropylmethyl-pyrazino[2′,1′:6,1]pyrido[3,4-b]indole-1,4-dione] | – |
| – | – | 260 to 262 | COc1ccc([C@@H]2c3[nH]c4ccccc4c3C[C@@H]3C(=O)N(C4CCCC4)CC(=O)N23)cc1Cl [Example 88, (6R,12aR)-2,3,6,7,12,12a-Hexahydro-2-cyclopentyl6-(3-chloro-4-methoxyphenyl)-pyrazino[2′,1′:6,1]pyrido[3,4-b]indole-1,4-dione] | – |
| 10 | < 100 | 283 to 284 | COc1ccc([C@@H]2c3[nH]c4ccccc4c3C[C@@H]3C(=O)N(C)CC(=O)N23)cc1Cl [Example 89] | 117 |
| – | – | 262 | CN1CC(=O)N2[C@H](c3ccc4c(c3)CCC4)c3[nH]c4ccccc4c3C[C@@H]2C1=O [Example 93, (6R,12aR)-2,3,6,7,12,12a-Hexahydro-6-(5-indanyl)-2-methyl-pyrazino[2′,1′:6,1]pyrido[3,4-b]indole-1,4-dione] | – |
| – | 200 | – | CN1CC(=O)N2[C@H](c3ccc4c(c3)OCO4)c3[nH]c4ccccc4c3C[C@@H]2C1=O [Example 95, (6R,12aR)-2,3,6,7,12,12a-Hexahydro-2-methyl-6-(3,4-methylenedioxyphenyl)-pyrazino[2′,1′:6,1]pyrido[3,4-b]indole-1,4-dione] | 135 |
| – | – | 224 to 226 | COc1ccc(CN2CC(=O)N3[C@H](c4ccc5c(c4)OCO5)c4[nH]c5ccccc5c4C[C@@H]3C2=O)cc1OC [Example 97, (6R,12aR)-2,3,6,7,12,12a-Hexahydro-2-(3,4-dimethoxybenzyl)-6-(3,4-methylenedioxyphenyl)-pyrazino[2′,1′:6,1]pyrido[3,4-b]indole-1,4-dione] | – |
| 10 | 300 | 285 to 290 | O=C1NCC(=O)N2[C@H](c3ccc4c(c3)OCO4)c3[nH]c4ccccc4c3C[C@H]12 [Example 101, (6R,12aR)-2,3,6,7,12,12a-Hexahydro-4-(3,4-methylenedioxyphenyl)-pyrazino[2′,1′:6,1]pyrido [3,4-b]indole-1,4-dione] | 136 |
| – | – | 271 | C#CCN1CC(=O)N2[C@H](c3ccc4c(c3)OCO4)c3[nH]c4ccccc4c3C[C@@H]2C1=O [Example 102, (6R,12aR)-2,3,6,7,12,12a-Hexahydro-6-(3,4-methylenedioxyphenyl)-2-(2-propynyl)-pyrazino[2′,1′:6,1]pyrido[3,4-b]indole-1,4-dione] | – |
| – | – | 285 to 288 | COc1ccc([C@@H]2c3[nH]c4ccccc4c3C[C@@H]3C(=O)N(C)CC(=O)N23)cc1 [Example 107, (6R,12aR)-2,3,6,7,12,12a-Hexahydro-6-(4-methoxyphenyl)-2-methyl-pyrazino[2′,1′:6,1]pyrido[3,4-b]indole-1,4-dione] | – |
| – | – | 277 | CCN1CC(=O)N2[C@H](c3ccc(OC)cc3)c3[nH]c4ccccc4c3C[C@@H]2C1=O [Example 108, (6R,12aR)-2,3,6,7,12,12a-Hexahydro-2-ethyl-6-(4-methoxyphenyl)-pyrazino[2′,1′:6,1]pyrido[3,4-b]indole-1,4-dione] | – |
| < 10 | 400 | 302 to 304 | O=C1[C@H]2Cc3c([nH]c4ccccc34)[C@@H](c3ccc4c(c3)OCO4)N2C(=O)[C@@H]2CCCN12 [Example 115, (5aR, 12R,14aS)-1,2,3,5,6,11,12,14a-Octahydro-12-(3,4-methylenedioxyphenyl)-pyrrolo[1″,2″:4′,5′]pyrazino[2′,1′:6,1]pyrido[3,4-b]indole-5-1,4-dione] | – |
| – | – | 219 to 220 | C[C@@H]1C(=O)N2[C@H](c3ccc4c(c3)OCO4)c3[nH]c4ccccc4c3C[C@@H]2C(=O)N1C [Example 116, (3R,6R,12aR)-2,3,6,7,12,12a-Hexahydro-2,3-dimethyl-6-(3,4-methylenedioxyphenyl)-pyrazino[2′,1′:6,1]pyrido[3,4-b]indole-1,4-dione] | – |
| – | – | 307 to 309 | C[C@H]1C(=O)N2[C@H](c3ccc4c(c3)OCO4)c3[nH]c4ccccc4c3C[C@@H]2C(=O)N1C [Example 117, (3S,6R,12aR)-2,3,6,7,12,12a-Hexahydro-2,3-dimethyl-6-(3,4-methylenedioxyphenyl)-pyrazino[2′,1′:6,1]pyrido[3,4-b]indole-1,4-dione] | – |

Source: patent US6369059B1, “Tetracyclic derivatives, process of preparation and use” (ICOS Corporation, priority 1994, dated 2002)
